According to patent US20260284009A1, “COMPOUNDS FOR NOS-RELATED CANCERS AND METHODS OF USE” (YISSUM RESEARCH DEVELOPMENT COMPANY OF THE HEBREW …, priority 2023, published 2026):

Legend:
U87-MG-xenografted mice = test: Tumor volume and tumor mass in U87-MG-xenografted mice; type: in vivo; details: for tumor volume in a subset of mice: subset (top 4-5, smallest tumor volume) of U87-MG-xenografted mice, 10 mg/kg L-NIL or both
Experimental: In FIGS. 16A-16B, data are expressed as the mean±SEM. Statistical significance was determined using a One-way ANOVA followed by Fisher's LSD multiple comparison post hoc test. **P<0.01, ***P<0.001, ****P<0.0001, and ns=not significant.
FIG. 16A: Temporal tumor volume comparison for U87-MG-xenografted mice receiving treatment with 0.1% DMSO (“vehicle”) (n=10), 80 mg/kg 7-NI (“7-NI”) (n=10), 10 mg/kg L-NIL (“L-NIL”) (n=10), or 80 mg/kg 7-NI and 10 mg/kg L-NIL concurrently administered (“Combo”) (n=15).
FIG. 16B: Quantitative analysis of tumor volume for U87-MG-xenografted mice after 8 days for the experiments of FIG. 16A.
In FIGS. 17A-17B, data are expressed as the mean±SEM. Statistical significance was determined using a One-way ANOVA followed by Fisher's LSD multiple comparison post hoc test. *P<0.05, ****P<0.0001, and ns=not significant.
FIG. 17B: Quantitative analysis of tumor volume after 8 days for the subset of U87-MG-xenografted mice for the experiments of FIG. 17A.
In FIGS. 18A-18B, data are expressed as the mean.
Data are expressed as the mean±SEM. Statistical significance was determined using a One-way ANOVA with Bonferroni's multiple comparisons tests. **P<0.01, ****P<0.0001, ns=not significant.
Data are expressed as the mean±SEM. Statistical significance was determined using a One-way ANOVA with Bonferroni's multiple comparisons tests. *P<0.05, **P<0.01, ***P<0.001, and ****P<0.0001.

U87-MG cells [1] = test: Western blots of 3-Ntyr, CD-70, iNOS and nNOS in U87-MG cells; type: cell-based, human; details: western blot, 100 μM 7-NI, 500 or 1000 μM L-NIL, n=3
Experimental: In FIGS. 12A-12D, for quantitative analysis data, all individual data series are presented as biological replicates (n=3) for all groups. Data are expressed as the mean±SEM.
FIG. 12A: Representative western blots of 3-Ntyr and β-actin levels in U87-MG cells following administration of the control, 0.1% DMSO (“Vehicle”), or 100 μM 7-NI (“7-NI”).
FIG. 12B: Quantitative analysis of 3-Ntyr levels for the experiments of FIG. 12A.
FIG. 12C: Representative western blots of 3-Ntyr and β-actin levels in U87-MG cells following administration of the control, 500 μM L-NIL (“L-NIL 500”), or 1000 μM L-NIL (“L-NIL 1000”).
FIG. 12D: Quantitative analysis of 3-Ntyr levels for the experiments of FIG. 12C.
In FIGS. 13A-13B, for quantitative analysis data, all individual data series are presented as biological replicates (n=3) for all groups. Data are expressed as the mean±SEM.
FIG. 13A: Representative western blots of CD-70 and β-actin levels in U87-MG cells following administration of the control, 0.1% DMSO (“Vehicle”), 100 μM 7-NI (“7-NI”), 500 μM L-NIL (“L-NIL 500”), or 1000 μM L-NIL (“L-NIL 1000”).
FIG. 13B: Quantitative analysis of CD-70 levels for the experiments of FIG. 13A.
In FIGS. 14A-14B, for quantitative analysis data, all individual data series are presented as biological replicates (n=3) for all groups. Data are expressed as the mean±SEM.
FIG. 14A: Representative western blots of iNOS and β-actin levels in U87-MG cells following administration of the control, 0.1% DMSO (“Vehicle”), 100 μM 7-NI (“7-NI”), 500 μM L-NIL (“L-NIL 500”), or 1000 μM L-NIL (“L-NIL 1000”).
FIG. 14B: Quantitative analysis of iNOS levels for the experiments of FIG. 14A.
In FIGS. 15A-15B, for quantitative analysis data, all individual data series are presented as biological replicates (n=3) for all groups. Data are expressed as the mean±SEM.
FIG. 15A: Representative western blots of nNOS and β-actin levels in U87-MG cells following administration of the control, 0.1% DMSO (“Vehicle”), 100 μM 7-NI (“7-NI”), 500 μM L-NIL (“L-NIL 500”), or 1000 μM L-NIL (“L-NIL 1000”).
FIG. 15B: Quantitative analysis of nNOS levels for the experiments of FIG. 15A.

U87-MG cells [2] = test: Nitrite (Griess) assay in U87-MG cells; type: cell-based, human
Experimental: Human glioblastoma U87-MG cells were obtained from the American Type Culture Collection (ATCC) and maintained in Dulbecco's modified Eagle's Medium (DMEM) and Ham's F-12 (1:1) supplemented with 10% fetal bovine serum, 2 mM L-glutamine, and 100 U/ml penicillin-G/[…] streptomycin in the humidified atmosphere (37° C., 5% CO2). Cells were plated onto 25 cm^2 and 75 cm^2 at a density of 7.0×10^5 and 2.1×10^6 cells/cm^2 respectively for Western blotting (WB) and 1×10^5 for immunofluorescence. The U87-MG cells were treated with 100 μM 7-nitroindazole (7-NI) for 24 hr.
In a particular example, in vitro and in vivo experiments were performed using U87-MG cells and U87-MG-xenografted mice, respectively, as a glioblastoma model.

U87-MG cells [3] = test: Clonogenic survival of U87-MG cells; type: cell-based, human; details: 100 μM 7-NI, 500 or 1000 μM L-NIL, combinations 100 μM 7-NI + 500 or 1000 μM L-NIL
Excerpt: (§1) Data are presented as mean±SEM.
as §1

U87-MG cells [4] = test: Nitrate and nitrite levels in U87-MG cells; type: cell-based, human; details: 100 μM 7-NI, 500 or 1000 μM L-NIL, combinations of both, n=3
Experimental: In FIGS. 10A-10B, data are presented as mean±SEM. Statistical significance was determined using a One-way ANOVA with Bonferroni's multiple comparisons tests. *P<0.05, **P<0.01, and ns=not significant.
FIG. 10A: Quantitative analysis of nitrate and nitrite levels in U87-MG cells following administration of 0.1% DMSO (“Vehicle”) (n=3) or 100 μM 7-NI (“7-NI”) (n=3).
FIG. 10B: Quantitative analysis of nitrate and nitrite levels in U87-MG cells following administration of control (n=3), 500 μM L-NIL (“L-NIL 500”) (n=3), or 1000 μM L-NIL (“L-NIL 1000”) (n=3).
Data are expressed as the mean±SEM.

[5] = U87-MG-xenografted mice, 80 mg/kg 7-NI, 10 mg/kg L-NIL or both concurrently, after 8 days, vs vehicle

O=[N+]([O-])c1cccc2cn[nH]c12 [7-NI, 7-nitroindazole]
tumor volume (U87-MG-xenografted mice; [5]): significantly smaller | tumor volume (U87-MG-xenografted mice; U87-MG-xenografted mice, 20, 40 or 80 mg/kg 7-NI intraperitoneal for 14 days, vs vehicle): significantly smaller | tumor mass (U87-MG-xenografted mice; U87-MG-xenografted mice, 20, 40 or 80 mg/kg 7-NI, after 14 days, vs vehicle): significantly smaller | tumor volume in a subset of mice (U87-MG-xenografted mice; 80 mg/kg 7-NI, after 8 days): significantly smaller | 3-Ntyr (nitrotyrosine) levels (U87-MG cells [1]): significant decrease | cluster of differentiation 70 (CD-70) levels (U87-MG cells [1]): did not lead to significant changes | inducible nitric oxide synthase (iNOS) levels (U87-MG cells [1]): did not lead to significant changes | neuronal nitric oxide synthase (nNOS) levels (U87-MG cells [1]): did not lead to significant changes | nitrite and nitrate content (Griess assay) (U87-MG cells [2]; 7-NI): dramatic reduction | clonogenic survival (U87-MG cells [3]): significant decrease | nitrate and nitrite levels (U87-MG cells [4]): significant decrease

CC(=N)NCCCC[C@H](N)C(=O)O [L-NIL, N^6-(1-iminoethyl)-L-lysine]
tumor volume (U87-MG-xenografted mice; [5]): significantly smaller | tumor volume in a subset of mice (U87-MG-xenografted mice; 80 mg/kg 7-NI, after 8 days): significantly smaller | 3-Ntyr (nitrotyrosine) levels (U87-MG cells [1]): did not result in a significant decrease | cluster of differentiation 70 (CD-70) levels (U87-MG cells [1]): did not lead to significant changes | inducible nitric oxide synthase (iNOS) levels (U87-MG cells [1]): did not lead to significant changes | neuronal nitric oxide synthase (nNOS) levels (U87-MG cells [1]): did not lead to significant changes | nitrite and nitrate content (Griess assay) (U87-MG cells [2]; higher dose of L-NIL, one experiment (FIG. 10B), vs control): significantly reduced | nitrite and nitrate content (Griess assay) (U87-MG cells [2]; higher dose of L-NIL, second experiment (FIG. 11), reduced vs control): not statistically significant | nitrite and nitrate content (Griess assay) (U87-MG cells [2]; lower dose of L-NIL, one experiment (FIG. 11), vs control): significantly reduced | nitrite and nitrate content (Griess assay) (U87-MG cells [2]; lower dose of L-NIL, second experiment (FIG. 10B), reduced vs control): not statistically significant | clonogenic survival (U87-MG cells [3]): significant decrease | nitrate and nitrite levels (U87-MG cells [4]): significant decrease
